Experiments:
large crabgrass = assay: Test A pre-/postemergence herbicide test; assay type: in vivo, Digitaria sanguinalis
In short: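 Greenhouse injury scoring (0–100, complete control = 100) at approximately ten days follows simultaneous pre- and postemergence application. Soil received a directed spray after seeding; seedlings of 2–10 cm at the one- to two-leaf stage were sprayed to runoff.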

blackgrass = assay: Test B postemergence herbicide test; assay type: in vivo, Alopecurus myosuroides; details: scale 0 (no effect) to 100 (complete control)
In short: (§1)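 Postemergence plants were sprayed with formulated test chemicals at 2 to 18 cm height (1- to 4-leaf stage); paddy species were grown to the 2-leaf stage. After 13 to 15 days in a greenhouse, injury was rated visually against untreated controls on a 0–100 scale (0 = no effect, 100 = complete control).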

ducksalad = assay: Test B flooded paddy test; assay type: in vivo, Heteranthera limosa; details: 1000 g ai/ha, scale 0 to 100 (0 no effect, 100 complete control)
In short: as §1

cocklebur = assay: Test C pre-/postemergence herbicide test; assay type: in vivo, Xanthium strumarium
In short: (§2)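 Pre/post spray; non-phytotoxic solvent + surfactant. Post-timing 1–4 leaves, 2–18 cm. Read-out: visual % control vs untreated, day 12–14, greenhouse.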

giant foxtail = assay: Test C pre-/postemergence herbicide test; assay type: in vivo, Setaria faberi
In short: as §2

johnsongrass = assay: Test C pre-/postemergence herbicide test; assay type: in vivo, Sorghum halepense
In short: as §2

common ragweed = assay: Test C pre-/postemergence herbicide test; assay type: in vivo, Ambrosia elatior; parameters: key to Plant response rating, Ragweed: 0 = no effect, 100 = complete control
In short: as §2

[1] = tested on: common (oilseed) sunflower; assay: Test C pre-/postemergence herbicide test; assay type: in vivo, Helianthus annuus; details: preemergence
In short: as §2

rice = assay: Test C flooded paddy test; assay type: in vivo, Oryza sativa
In short: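 Plants were grown to the 1- to 4-leaf stage (2–18 cm) and then treated postemergence, or grown to the 2-leaf stage for the flooded paddy test. They were held in a greenhouse for 12 to 14 days and then scored by eye against controls, where 0 is no effect and 100 is complete control.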

[2] = 31 g ai/ha, preemergence, scale 0 to 100
[3] = 125 g ai/ha, scale 0 (no effect) to 100 (complete control), visual, 12 to 14 days, preemergence
[4] = 250 g ai/ha, scale 0 to 100 (0 no effect, 100 complete control), visual, 12 to 14 days, preemergence
[5] = Postemergence, 250 g ai/ha, scale 0 to 100, 0 no effect, 100 complete control
[6] = postemergence, 125 g ai/ha, scale 0 to 100
[7] = postemergence, 62 g ai/ha, scale 0 to 100
[8] = 62 g ai/ha, preemergence, scale 0 to 100
[9] = 250 g ai/ha, scale 0-100, preemergence
[10] = 500 g ai/ha, scale 0 to 100 (0 no effect, 100 complete control), visual, 12 to 14 days, preemergence

C=Cn1nc(C(C)(C)C)cc1C(=O)Nc1cccc(C(C)=NO)c1 [Compound 114]
Crabgrass, Large plant response rating (large crabgrass; Postemergence, 500 g ai/ha, 0 to 100 scale, 0 no effect, 100 complete control): 40 | Plant response rating, Crabgrass, Large (large crabgrass; Postemergence, 2000 g ai/ha, 0 to 100 scale, 0 no effect, 100 complete control): 60 | Crabgrass, Large plant response rating (large crabgrass; Preemergence, 500 g ai/ha, visual rating, 0 to 100 scale (0 no effect, 100 complete control)): 40 | Crabgrass, Large plant response rating (large crabgrass; Preemergence, 2000 g ai/ha, visual rating, 0 to 100 scale (0 no effect, 100 complete control)): 85 | Plant response rating, Blackgrass (blackgrass; Postemergence, 500 g ai/ha, visual rating after 13 to 15 days): 30 | Blackgrass plant response rating (blackgrass; postemergence, 125 g ai/ha, visual rating): 10 | Ducksalad plant response rating (ducksalad; visual rating, 13 to 15 days): 80 | Plant response rating, Cocklebur (cocklebur; [2]): 0 | Plant response rating (0 = no effect, 100 = complete control), Cocklebur (cocklebur; 62 g ai/ha, preemergence): 20 | Plant response rating, Cocklebur (cocklebur; [3]): 20 | Plant response rating, Cocklebur (cocklebur; [4]): 30 | Plant response rating, Cocklebur (cocklebur; [5]): 30 | Plant response rating, Cocklebur (cocklebur; [6]): 30 | Plant response rating, Cocklebur (cocklebur; postemergence, 31 g ai/ha, scale 0 to 100): 30 | Plant response rating, Cocklebur (cocklebur; [7]): 30 | Plant response rating, Foxtail, Giant (giant foxtail; [2]): 20 | Plant response rating (0 = no effect, 100 = complete control), Foxtail, Giant (giant foxtail; 62 g ai/ha, preemergence): 20 | Plant response rating, Foxtail, Giant (giant foxtail; [3]): 30 | Plant response rating, Foxtail, Giant (giant foxtail; [4]): 40 | Plant response rating, Foxtail, Giant (giant foxtail; [5]): 10 | Plant response rating, Foxtail, Giant (giant foxtail; [7]): 10 | Plant response rating, Johnsongrass (johnsongrass; [2]): 0 | Plant response rating (0 = no effect, 100 = complete control), Johnsongrass (johnsongrass; 62 g ai/ha, preemergence): 20 | Plant response rating, Johnsongrass (johnsongrass; [3]): 30 | Plant response rating, Johnsongrass (johnsongrass; [5]): 70 | Plant response rating, Johnsongrass (johnsongrass; [6]): 70 | Plant response rating, Johnsongrass (johnsongrass; [7]): 70 | Plant response rating, Ragweed (common ragweed; [2]): 10 | Plant response rating (0 = no effect, 100 = complete control), Ragweed (common ragweed; 62 g ai/ha, preemergence): 10 | Plant response rating, Ragweed (common ragweed; [3]): 10 | Plant response rating, Ragweed (common ragweed; [5]): 90 | Plant response rating, Ragweed (common ragweed; [6]): 80 | Plant response rating, Ragweed (common ragweed; [7]): 60 | Plant response rating, Sunflower ([1]; 31 g ai/ha, scale 0 to 100): 30 | Plant response rating (0 = no effect, 100 = complete control), Sunflower ([1]; 62 g ai/ha): 30 | Plant response rating, Sunflower ([1]; 125 g ai/ha, scale 0 (no effect) to 100 (complete control), visual, 12 to 14 days): 30

CCc1nn(C(C)(C)C)nc1C(=S)Nc1cccc(C(=S)N(C)C)c1 [Compound 396]
Blackgrass plant response rating (blackgrass; 125 g ai/ha, visual rating, postemergence): 10 | Blackgrass plant response rating (blackgrass; Postemergence, 500 g ai/ha): 30 | Ducksalad plant response rating (ducksalad): 70 | Plant response rating, Cocklebur (cocklebur; [8]): 0 | Plant response rating (0 = no effect, 100 = complete control), Cocklebur (cocklebur; 125 g ai/ha, preemergence): 0 | Plant response rating, Cocklebur (cocklebur; [9]): 0 | Plant response rating, Cocklebur (cocklebur; [10]): 0 | Plant response rating, Foxtail, Giant (giant foxtail; [8]): 95 | Plant response rating (0 = no effect, 100 = complete control), Foxtail, Giant (giant foxtail; 125 g ai/ha, preemergence): 100 | Plant response rating, Foxtail, Giant (giant foxtail; [9]): 100 | Plant response rating, Foxtail, Giant (giant foxtail; [10]): 100 | Plant response rating, Johnsongrass (johnsongrass; [8]): 95 | Plant response rating (0 = no effect, 100 = complete control), Johnsongrass (johnsongrass; 125 g ai/ha, preemergence): 100 | Plant response rating, Johnsongrass (johnsongrass; [9]): 100 | Plant response rating, Johnsongrass (johnsongrass; [10]): 100 | Plant response rating, Ragweed (common ragweed; [8]): 0 | Plant response rating (0 = no effect, 100 = complete control), Ragweed (common ragweed; 125 g ai/ha, preemergence): 0 | Plant response rating, Ragweed (common ragweed; [9]): 80 | Plant response rating, Ragweed (common ragweed; [10]): 95 | Plant response rating, Sunflower ([1]; 62 g ai/ha, scale 0 to 100): 0 | Plant response rating (0 = no effect, 100 = complete control), Sunflower ([1]; 125 g ai/ha): 0 | Plant response rating, Sunflower ([1]; 250 g ai/ha, scale 0-100): 0 | Plant response rating, Sunflower ([1]; 500 g ai/ha, scale 0 to 100 (0 no effect, 100 complete control), visual, 12 to 14 days): 15 | Rice plant response rating (rice; 62 g ai/ha, scale 0 to 100): 60 | Rice plant response rating (rice; 125 g ai/ha, scale 0 to 100 (0 no effect, 100 complete control)): 70 | Rice plant response rating (rice; 250 g ai/ha, scale of 0 to 100, 0 is no effect, 100 is complete control): 75 | Plant response rating, Rice (rice; 500 g ai/ha, visual rating after 12 to 14 days, scale 0 to 100 (0 no effect, 100 complete control)): 80

From patent US20060069132A1, “Azolecarboxamide herbicides” (priority 2004, published 2006)
